From patent US20090130165A1, “MIF Inhibitors” (Cortical Pty Ltd, priority 2005, published 2009)
Where two headings read alike, the source gives them in different places.

Legend:
mice = test: Delayed-type hypersensitivity reaction to mBSA, footpad swelling; assay type: in vivo, mouse; details: 5 and 15 mg/kg/24 h IP, twice daily for 7 days prior to mBSA challenge and further 24 h (FIG. 4)
From the text: Delayed-type hypersensitivity reactions, which are initiated by T lymphocyte responses to recall antigens and mediated by many cell types including macrophages, are known to be dependent on the cytokine or biological activity of MIF^(16,17). For example, an anti-MIF monoclonal antibody suppresses delayed-type hypersensitivity reactions in vivo to methylated bovine scrum albumin (mBSA) injected into the skin of animals preimmunised with mBSA^(16). A compound inhibiting die cytokine or biological function of MIF might be expected to inhibit delayed-type hypersensitivity reactions in vivo.
Mice were immunised on day 0 with 200 μg of methylated BSA (mBSA; Sigma Chemical Co., Castle Hill, Australia) emulsified in 0.2 ml of Freund's complete adjuvant (CFA; Sigma) injected subcutaneously in the flank skin. At day 7, mice were given 100 μg mBSA in 0.1 ml CFA by intradermal injection at the base of the tail. […] Mice were killed 24 h later and footpad swelling quantified using micro calipers (Mitutoyo, Kawasaki-shi, Japan). […] Results were expressed as the difference in footpad swelling between mBSA and saline-injected footpads, and expressed as change in footpad thickness (mm). […] Treatment with compound 13 continued for a further 24 h and changes in footpad thickness relative to control paws were measured at that time.

C57Bl/6j mice = test: In vivo assay of MIF antagonism: murine endotoxic shock model, serum TNF; parameters: species or system mouse; details: intra-peritoneal, 10, 1 and 0.1 mg/kg at 24 hours and 1 hour before LPS 1 mg/kg (FIG. 3)
Description: The activities of compounds were studied in the murine endotoxic shock model. This model has been previously shown to be dependent on MIF^(14). Administration of a compound which inhibits the cytokine activity of MIF would be expected to result hi a reduction in serum level s of the pro-inflammatory cytokine TNF.
Endotoxaemia was induced by intra-peritoneal Injection of C57Bl/6j mice with lipopolysaccharide (LPS) (1 mg/kg) in 200 μl saline. Animals were treated with either a saline solution (control) only, or LPS with vehicle or compounds B1 and A3 in vehicle at doses of 10, 1 and 0.1 mg/kg body weight, administered by intra-peritoncal injection at 24 hours and 1 hour before intra-peritoneal LPS injection. After 1 hour mice were humanely killed by CO2 inhalation then neck dislocation. Serum was obtained from blood obtained by cardiac puncture prior to death and measured for TNF levels by ELISA according to the manufacturer's instructions.

[1] = tested on: LPS-induced IL-6 production in RAW264.7 mouse macrophage cell line; test: Inhibition of LPS-induced production of IL-6 in RAW264.7 macrophages; assay type: cell-based; details: 50 uM compound, 100 ng/ml LPS 4 hr, RAW264.7 cells, relative to LPS+DMSO control
Description: MIF is an important factor in the innate immune response to toxins such as the bacterial endotoxin lipopolysaccharide (LPS). […] A compound with the ability to inhibit the biological activity of MIF would therefore inhibit the activation of cytokine production by macrophages in response to LPS. The RAW264.7 mouse macrophage cell line was propagated in DMEM/10% foetal calf serum (FCS) at 37° C. in 5% CO2. 24 hr prior to assay cells were seeded in 96-well tissue culture plates. Cells were allowed to adhere for 4 hr prior to transfer to DMEM/0.5% FCS for 18 hr. Cells were then treated with 50 uM compound in DMSO for 30 min prior to stimulation for 4 hr with 100 ng/ml LPS. Cell culture supernatants were then collected from each well and assayed for IL-6 levels by ELISA (R&D Systems) according to the manufacturer's instructions.

[2] = molecular target: T1, immobilized recombinant MIF protein (Homo sapiens, UniProt P14174); test: Interaction of compounds with MIF protein by Surface Plasmon Resonance (Biacore S51); assay type: binding; details: SPR; for kon / Kinetics Method Kd (10^−3 s^−1) / Kd: immobilized MIF; for kon: association rate, read-out: Kinetics Method Ka (10^3 M^−1s^−1); for Kinetics Method Kd (10^−3 s^−1): dissociation rate; for equilibrium dissociation constant (KD) values, in words: immobilized recombinant MIF
T1 sequence (P14174 2-115 limits assumed): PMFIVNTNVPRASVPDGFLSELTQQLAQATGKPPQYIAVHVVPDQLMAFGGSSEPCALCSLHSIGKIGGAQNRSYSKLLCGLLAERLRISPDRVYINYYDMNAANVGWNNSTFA
Description: The interaction of compounds with MIF protein was characterized by Surface Plasmon Resonance (SPR) analysis using an S51 (Biacore International AB) automated small molecule biosensor assay system. Recombinant MIF protein was immobilized on a carboxymethyl dextran biosensor chip using amine coupling chemistry. Compound binding to the immobilized MIF protein was measured at 11 concentrations up to 100 uM (in duplicate), with corrections for the DMSO used as a solvent at a final concentration of 5%. The change in SPR output relative to that of a control underivatized reference spot was recorded over time. The affinity and stoichiometry of interaction was calculated using steady state and/or kinetics evaluation methods with software supplied by the manufacturer.

[3] = tested on: Recombinant human MIF-induced leukocyte-endothelial cell adhesion in mice; test: rhMIF-induced leukocyte adhesion, intravital microscopy of cremaster muscle; assay type: in vivo, mouse; details: 30 mg/kg intraperitoneal 10 minutes prior to intrascrotal MIF, 4 hours (FIG. 5)
From the text: As will be known to those skilled in the art, the adherence of leukocytes to the endothelium in vivo can be studied using the technique of intravital microscopy^(18,19). As MIF induces leukocyte adherence to vascular endothelium as measured using intravital microscopy, a compound inhibiting the Cytokine or biological activity of MIF might be expected to inhibit the effects of MIF observable using intravital microscopy.
Mice were anesthetised with ketamine/xylazine, and the cremaster muscle was exteriorized onto an optically-clear viewing pedestal. The cremasteric microcirculation was visualized using an intravital microscope (Axioplan 2 Imaging; Carl Zeiss, Australia) with a 20× objective lens (LD Achroplan 20×/0.40 NA, Carl Zeiss, Australia) and a 10× eyepiece. Three-five postcapillary venules (25-40 μm in diameter) were examined for each experiment. Images were visualized using a video camera and recorded on video-tape for subsequent playback analysis. Recombinant human MIF ([…]) was injected intrascrotally in 150 μL saline, prior to intravital microscopy 4 hours later. Leukocyte-endothelial cell adhesion, was assessed as described by Gregory et al^(19). Compound 13 at a dose of 30 mg/kg or vehicle were administered by intraperitoneal injection 10 minutes prior to intrascrotal injection of MIF.

[4] = tested on: IL-1 induced COX-2 expression in S112 human dermal fibroblasts; test: Inhibition of interleukin-1 induction of cyclooxygenase-2 expression in S112 human dermal fibroblasts; assay type: cell-based; details: S112 cells, up to 100 μM compound, IL-1 0.1 ng/ml, 6 hours (FIG. 2)
From the text: The activity of compounds was studied in a bioassay for MIF-dependent cytokine effects of human S112 dermal fibroblasts. In these cells the induction of the expression of cyclooxygenase-2 (COX-2) protein by interleukin 1 (IL-1) is dependent upon the presence of endogenous MIF^(13). The expression of COX2 proteins is therefore sensitive to depiction of endogenous MIF by neutralizing antibody, gene knockout of targeting with small molecule inhibitors. A compound with the ability to inhibit the biological activity of MIF would therefore inhibit die activation of COX2 expression hi response to IL-1.
S112 human dermal fibroblasts were propagated in RPMI/10% foetal calf serum (FCS). Prior to experimentation, cells were seeded at 10^5 cells/ml in RPMI/0.1% BSA for 18 hours. Cells were treated with recombinant human IL-1 (0.1 ng/ml) and with each compound at concentrations ranging up to 100 μM. A control was treated only with recombinant human TL-1 (0.1 ng/ml) and vehicle (DMSO). After 6 hours, cells were collected and intracellular COX-2 protein determined by permeabilisation flow cytometry. […] Cellular fluorescence was determined using a flow cytometer. At least 5000 events were counted for each reading, each of which was performed in duplicate, and the results expressed in mean fluorescence intensity (MFI) after subtraction of negative control-labelled cell fluorescence.

[5] = Lower limits of aqueous solubility by nephelometry; assay type: physicochemical; details: phosphate-buffered saline with 0.005% (v/v) P20 and 5% DMSO, aqueous with cosolvent or surfactant or cyclodextrin, kinetic from dmso stock, 0.005% (v/v) P20, 5% DMSO, read-out: Solubility Lower Limit Range
Description: Lower limits of aqueous compound solubility were determined in a nepholometer in phosphate-buffered saline containing 0.005% (v/v) P20 and a final concentration of 5% DMSO. Briefly, compounds were initially dissolved in DMSO as a 10 mM stock solution and diluted to 1 mM and 0.5 mM working solutions with neat DMSO. The compounds were then titrated in DMSO and a constant volume of DMSO stock added to filtered PBS/P20 solution so that the final DMSO concentration was 5%. The solubility was then determined in clear, flat-bottom 96-well plates using the nephelometer and reported as the concentration range at which the compound begins to precipitate from solution.

[6] = molecular target: T2, Recombinant human MIF protein (Homo sapiens, UniProt P14174); test: Inhibition of MIF tautisomerase activity (L-dopachrome); assay type: biochemical; details: mean±standard deviation of 2-4 experiments
T2 sequence (P14174 2-115 limits assumed): T1 sequence (P14174 2-115 limits assumed)
Description: MIF protein has the ability in vitro to catalyze the tautisomerization of dopachrome^(15).
Recombinant human MIF protein was pre-incubated with compounds as indicated prior to the addition of L-dopachrome substrate. Tautomerase activity was determined by measurement of die decrease in absorbance at 475 nm after 2 min. […]

[7] = tested on: LPS-induced IL-6 production in RAW264.7 mouse macrophage cell line; test: Inhibition of LPS-induced production of IL-6 in RAW264.7 macrophages; assay type: cell-based; details: RAW264.7 cells, up to 100 μM compound (FIG. 1)
[8] = kinetics evaluation, read-out: Kinetics Method Kd
[9] = steady state evaluation, 5% DMSO, read-out: Steady State Method (equilibrium dissociation constant KD)

| kon [2] [M⁻¹ s⁻¹] | Kinetics Method Kd (10^−3 s^−1) [2] | Kd [2, 8] [µM] | Kd [2, 9] [µM] | equilibrium dissociation constant (KD) values, in words [2] | inhibition of IL-1 induced COX-2 expression, in words [4] | solubility [5] [µg/mL] | inhibition at 50 µM ([6]; 50 uM compound) [%] | inhibition at 100 µM ([6]; 100 uM compound) [%] | SMILES | inhibition of DTH reactions (change in footpad thickness), in words (mice) | suppression of LPS-induced serum TNF levels, in words (C57Bl/6j mice) | inhibition at 50 µM [1] [%] | reduction of MIF-induced leukocyte adhesion [3] | IC50 ([7]; Mus musculus) [µM] | inhibition of LPS-induced IL-6 production, in words [7] |
| --- | --- | --- | --- | --- | --- | --- | --- | --- | --- | --- | --- | --- | --- | --- | --- |
| 600 ± 200 | 1.3 ± 0.3 10^−3 s^−1 | 2.5 ± 1.2 | 10 ± 1.4 | low micromolar range |  |  |  |  | O=C(O)CCSCC(=O)c1cc2c(cc1Cl)NC(=O)C2 [Compound 13, 3-((2-(6-chloro-2-oxo-2,3-dihydro-1H-indol-5-yl)-2-oxoethyl)thio)propanoic acid] | significant inhibition | significant dose-dependent suppression | 32 ± 30 | approximately 50% |  |  |
|  |  |  |  |  | dose-dependent inhibition |  |  |  | O=C(O)CCSCC(=O)c1ccc2c(c1)CC(=O)N2 [Compound 2] |  | significant dose-dependent suppression |  |  |  |  |
|  |  |  | 5.1 | low micromolar range |  | > 140 |  |  | O=C(O)CCSCC(=O)c1ccc2[nH]c(=O)[nH]c2c1 [Compound 4, 3-((2-oxo-2-(2-oxo-2,3-dihydro-1H-benzimidazol-5-yl)ethyl)thio)propanoic acid] |  | significant dose-dependent suppression | 5 ± 49 |  |  |  |
| 2200 ± 1000 | 6.2 ± 1.2 10^−3 s^−1 | 3.6 ± 1 | 27 ± 2.3 | low micromolar range |  |  | 9 ± 4 | 17 ± 8 | CCCCSCC(=O)c1ccc2[nH]c(=O)sc2c1 [Compound 19, 6-((Butylthio)acetyl)-1,3-benzothiazol-2(3H)-one] |  | significant dose-dependent suppression | 82 ± 13 |  | 20 | dose-dependent inhibition |
